What was measured:
Type in all cases: in vivo
[1] = tested on: Housefly [Musca domestica]; assay: Housefly insecticidal test; details: μg per 25 female flies; mortality after 48 hours
Method in brief: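 Dose range started at 100 μg per 25 female flies and went downward. Insects (1-2 days old) contacted a dried acetone/peanut-oil deposit in dishes; LC50 values come from dosage-mortality curves at 48 h.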

[2] = tested on: Tobacco Budworm [Heliothis virescens (Fabricius)] larvae; assay: Tobacco budworm contact test; details: second-instar larvae, percent in solution, 5 days
Method in brief: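 Cotton cotyledons dipped 2–3 s in compound in 50-50 acetone-water, dried, then infested with 5 second-instar larvae and held 5 days at high humidity. Mortality scored; LC50 from dosage-mortality curves, expressed as percent compound in solution, concentrations from 0.1% downward.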

[3] = tested on: Tobacco Budworm [Heliothis virescens (Fabricius)] eggs; assay: Tobacco budworm egg test; details: 2-day old eggs, percent in solution
Method in brief: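 Paper-towel patches of 2-day-old eggs dipped in acetone solutions of compound (0.1% downward), held on larval rearing medium at 78° F. Mortality scored once all control eggs had hatched and larvae were feeding; LC50 from dosage-mortality curves, expressed as percent compound in solution.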

[4] = tested on: Beet Armyworm (Spodoptera exigua); assay: Beet armyworm insecticidal test; details: second-instar larvae, percent in solution; five days
Method in brief: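 Sugar beet leaves dipped 2–3 s in compound diluted in 50:50 acetone-water, dried, then infested with five second-instar larvae in humid petri dishes. Mortality scored at 5 days; concentrations from 0.1% downward. LC50 from dosage-mortality curves, expressed as percent compound in solution.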

[5] = tested on: Cabbage Looper [Trichoplusia ni (Hubner)]; assay: Cabbage looper insecticidal test; details: second-instar larvae, percent in solution; 3-5 days
Method in brief: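 Squash cotyledons dipped 2-3 s in compound in 50-50 acetone-water, dried, then infested with 5 second-instar larvae and held at high humidity. Mortality scored after 3-5 days at concentrations from 0.1% downward. LC50 from dosage-mortality curves, expressed as percent compound in solution.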

[6] = tested on: Aster Leafhopper [Macrosteles fascifrens (Stal)]; assay: Aster leafhopper insecticidal test; details: adults/nymphs, percent in solution; 48 hours
Method in brief: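 Three ~10 cm oat seedlings per cup were dipped 2-3 seconds in 50-50 acetone-water compound solutions, dried, and caged with ten adult/nymph leafhoppers. Mortality was counted after 48 hours at concentrations from 0.05% downward. LC50, as percent compound in solution, came from dosage-mortality curves.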

[7] = tested on: Maize weevil [Sitophilus Zeamais (Motschulsky)]; assay: Maize weevil insecticidal test; details: adult weevils, percent in solution; 48 hours
Method in brief: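 LC50, in percent of compound in solution, was derived from dosage-mortality curves after 48 h at about 25 °C. Ten adult weevils per container fed on four corn seeds briefly immersed in acetone:water (50:50) solutions of up to 0.01% and dried.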

[8] = tested on: Rice water weevil [Lissorhoptrus oryzophilus (Kuschel)]; assay: Rice water weevil insecticidal test; details: topical, μg per weevil; 48 hours
Method: (§1) The compounds in Tables 1 and 2 above were tested for insecticidal activity using the following testing procedures. LC50 values, based on the results of these tests and calculated according to dosage-mortality curves, are expressed in Table 3.
Rice water weevil [Lissorhoptrus oryzophilus (Kuschel)]:
Test compounds were diluted in acetone. Droplets (1 μl) of test solutions were applied to the ventral abdomens of ten female adult weevils. The treated weevils were placed in containers with wet cotton balls and rice foliage. The containers were covered and kept at a temperature of about 25° C. Mortality was recorded after 48 hours. Test concentrations ranged from […] or 2.5 μg per weevil down to that at which 50% mortality occurred. The LC50 values are expressed below in Table 3 under the heading "RWW" in terms of μg of test compound per weevil.

[9] = tested on: Black Bean Aphid [Aphis fabae (Scop.)]; assay: Black bean aphid insecticidal test; details: percent of test compound in sprayed solution; 48 hours
Method: as §1
Black Bean Aphid [Aphis fabae (Scop.)]:
Nasturtium plants (Tropaeolum sp.) approximately 5 cm tall, were transplanted into sandy loam soil in small cups and infested with 25-50 black bean aphids of mixed ages. Twenty-four hours later they were sprayed to the point of runoff with 50-50 acetone-water solutions of the test compounds. Treated plants were held in the greenhouse and mortality was recorded after 48 hours. Test concentrations ranged from 0.05% downward. The LC-50 value is expressed below in Table 3 under the heading "BBA" in terms of percent of the test compound in the sprayed solution.

| SMILES | LC50, HF [1] | LC50, TBW, C (TBW-C) [2] | LC50, TBW, E (TBW-E) [3] | LC50, BAW [4] | LC50, CL [5] | LC50, LH [6] | LC50, MW [7] | LC50, RWW [8] | LC50, BBA [9] |
| --- | --- | --- | --- | --- | --- | --- | --- | --- | --- |
| CC(C)C(=Nc1ccc(Cl)cc1)OCc1cccc(Oc2ccc(Cl)cc2)c1 [Compound 269] | 25 µg | 0.001% | 0.04% | 0.0024% | 0.0003% | 0.003% | > 0.01% | > 2.5 µg | – |
| CC(C)C(=Nc1cc(F)cc(F)c1)OCc1cccc(Oc2ccccc2)c1 [Compound 55] | > 100 µg | 0.004% | 0.06% | 0.006% | 0.0017% | 0.0005% | – | > 2.5 µg | – |
| CC(C)C(=Nc1ccc2c(c1)OCO2)OCc1cccc(Oc2ccccc2)c1 [Compound 180] | 2 µg | 0.003% | 0.03% | 0.005% | 0.0004% | 0.0015% | 0.008% | > 2.5 µg | – |
| CC(C)C(=Nc1ccc(OC(F)(F)F)cc1)OCc1ccc(F)c(Oc2ccc(Cl)cc2)c1 [Compound 323] | > 100 µg | 0.00065% | 0.045% | 0.0025% | 0.0006% | 0.05% | 0.0075% | 0.16 µg | – |
| CC(C)C(=Nc1ccc(F)c(Br)c1)OCc1ccc(F)c(Oc2ccc(F)cc2)c1 [Compound 273] | 7 µg | 0.00025% | 0.015% | 0.0017% | 0.000018% | 0.0003% | 0.004% | > 2.5 µg | – |
| CC(C)C(=Nc1ccc(F)c(F)c1)OCc1ccc(F)c(Oc2ccc(F)cc2)c1 [Compound 278] | 3 µg | 0.00026% | 0.008% | 0.0012% | 0.00002% | 0.0003% | 0.0063% | 0.085 µg | – |
| CC(C)C(=Nc1ccc(F)c(C(F)(F)F)c1)OCc1ccc(F)c(Oc2ccc(F)cc2)c1 [Compound 277] | 4 µg | 0.0005% | 0.013% | 0.005% | 0.00001% | 0.0003% | > 0.01% | 0.065 µg | – |
| CC(C)C(=Nc1ccc(OC(F)(F)F)cc1)OCc1ccc(F)c(Oc2ccc(F)cc2)c1 [Compound 286] | 34 µg | 0.00017% | 0.005% | 0.0004% | 0.000024% | 0.0006% | 0.0039% | 0.09 µg | – |
| CC(C)C(=Nc1ccc(F)c(Cl)c1)OCc1cccc(Oc2ccc(Cl)cc2)c1 [Compound 239] | 14 µg | 0.0005% | 0.025% | 0.005% | 0.00015% | 0.002% | 0.006% | > 2.5 µg | – |
| CC(C)C(=Nc1ccc(F)c(Cl)c1)OCc1ccc(F)c(Oc2ccccc2)c1 [Compound 82] | 2.5 µg | 0.0008% | 0.006% | 0.0025% | 0.00018% | 0.0001% | – | 0.086 µg | – |
| CC(C)C(=Nc1ccc(F)c(Cl)c1F)OCc1cccc(Oc2ccc(F)cc2)c1 [Compound 352] | 4.6 µg | 0.0004% | > 0.1% | > 0.1% | 0.000065% | 0.0004% | 0.0075% | > 2.5 µg | – |
| CC(C)C(=Nc1ccc(OC(F)(F)F)c(Cl)c1)OCc1cc(F)cc(Oc2ccc(F)cc2)c1 [Compound 328] | > 100 µg | – | > 0.1% | – | 0.03% | – | – | – | > 0.05% |
| CC(C)C(=Nc1ccc(F)c(Cl)c1)OCc1cccc(Oc2ccc(F)cc2)c1 [Compound 89] | 5 µg | 0.0005% | 0.04% | 0.009% | 0.00003% | 0.001% | 0.005% | > 2.5 µg | – |
| CC(C)C(=Nc1ccc(F)c(Cl)c1)OCc1cccc(Oc2ccccc2)c1 [Compound 81] | 4 µg | 0.0009% | 0.007% | 0.003% | 0.0006% | 0.0003% | 0.005% | > 0.5 µg | – |
| CC(C)C(=Nc1ccc(F)c(Cl)c1)OCc1ccc(F)c(Oc2ccc(Cl)cc2)c1 [Compound 267] | 8.4 µg | 0.0003% | 0.015% | 0.0012% | 0.00008% | 0.002% | 0.0027% | 0.11 µg | – |
| CC(C)C(=Nc1ccc(F)c(Cl)c1)OCc1ccc(F)c(Oc2ccc(F)cc2)c1 [Compound 216] | 2 µg | 0.00018% | 0.005% | 0.0007% | 0.000007% | 0.00025% | 0.0017% | 0.067 µg | – |

From patent publication US5070210A, “Novel ketenimines as intermediates for insecticides” (ICI Americas Inc., priority 1990, dated 1991)
